According to patent publication US20260327193A1, “INHIBITORS OF PLASMA KALLIKREIN” (Rezolute, Inc., priority 2022, published 2026):

How the values were obtained:
[1] = Caco-2 permeability assay; type: in vitro ADME; details: human, 10 μM test compound, pH 7.4, 37° C., 120 minutes, direction of the value not given, read-out: Caco-2 Perm
Description: Permeability Assay. A permeability study was conducted using Caco-2 cells (ECACC Cat. no. 09042001) seeded on cell inserts plate (Millicell, Cat #PSHT010R^5) at a density of 80,000 cells per well, and the cells were maintained for 18-21 days in culture medium (1×DMEM with 10% FBS, 0.1 mg/mL Penicillin/Streptomycin). The culture medium was changed every alternate day. Prior to the experiments, the integrity of the cellular monolayer was evaluated by measuring the TEER value using a volt ohm meter and STX100C96 electrode. Only monolayers with TEER values greater than 800 ohm·cm^2 in buffer after the first wash were used.
An assay buffer (HBSS with Ca+2 and Mg+2 buffered with 10 mM HEPES and 25 mM D-Glucose, pH-7.4) was used on apical side as well as on basolateral side.
An intermediate stock solution of a test compound was prepared in DMSO at a concentration of 1 mM in DMSO. This stock solution was spiked in the assay buffer to achieve a target test compound concentration of 10 μM. The organic content of final drug preparation was 1.0% v/v. The bidirectional permeability experiment was done in singlet and the sample analysis was done in duplicate.
The cultured cell monolayer was washed twice with assay buffer (0.4 mL and 0.8 mL was added to the apical and basolateral sides, respectively, of the culture plate), and then buffers from both compartments were discarded.
For the apical to basal (AP>BL) experiment, aliquots of 0.4 mL donor solution (assay buffer, pH 7.4 containing test compound) and 0.8 mL of receiver solutions (assay buffer, pH 7.4, only) were added to the apical and basolateral compartments, respectively. For the basal to apical (BL>AP) experiment, aliquots of 0.8 mL donor solution (assay buffer pH-7.4 containing test compound) and 0.4 mL of receiver solutions (assay buffer, pH-7.4) were added to the basolateral and apical compartments, respectively. The plate was then kept in an incubator at 37° C. for 120 minutes.
Control experiments with Propranolol (High Permeability), Atenolol (Low Permeability), Digoxin (High Efflux-Pgp substrate), and Digoxin+Verapamil (Pgp Inhibitor) in both directions (AP>BL and BL>AP) were performed in separate wells on the same experiment day.
After the completion of the transport experiment, the integrity of the cell monolayer was evaluated by measuring the Lucifer Yellow (LY) rejection. To do this, 400 μL of 10 μM LY was added to each well of the filter plate and incubated for 1 hour at 37° C. Subsequently, the samples were collected from the basolateral compartments, and the LY fluorescence was measured using an excitation wavelength of 485 nm and an emission wavelength of 530 nm. The percent LY rejection across the cell monolayer was calculated by measuring fluorescence in the receiver plate (basolateral compartment) compared to theoretical equilibrium standard.
The study samples (collected from apical and basolateral compartments after 120 min incubation) were analyzed by LCMS/MS, following which the Papp of the compound(s) was calculated in both apical to basal and basal to apical directions. Papp=([DBL]×VBL)/(A×t×[DAP]) where: [DBL]=final drug concentration on the basolateral side, VBL=volume of the basolateral compartment, A=surface area of the cell culture, t=total incubation time, and [DAP]=initial drug concentration on the apical side.

Plasma Kallikrein [2] = biological target: T1, Plasma Kallikrein (Homo sapiens, UniProt P03952); experiment: Plasma kallikrein protease inhibition assay, purified enzyme; type: biochemical; set-up: NS0-derived Gly20-Ala638, with a C-terminal 60-His tag; 60-His (so in the source) (C); purchased R&D Systems 2497-SE; host or cells: Mouse myeloma cell line, NS0; details: 10 μM Z-FR-AMC substrate, 20-minute pre-incubation, pH 8.0/8.5, room temperature, read-out: Purified PKal IC50
T1 sequence (P03952 391-638 limits assumed): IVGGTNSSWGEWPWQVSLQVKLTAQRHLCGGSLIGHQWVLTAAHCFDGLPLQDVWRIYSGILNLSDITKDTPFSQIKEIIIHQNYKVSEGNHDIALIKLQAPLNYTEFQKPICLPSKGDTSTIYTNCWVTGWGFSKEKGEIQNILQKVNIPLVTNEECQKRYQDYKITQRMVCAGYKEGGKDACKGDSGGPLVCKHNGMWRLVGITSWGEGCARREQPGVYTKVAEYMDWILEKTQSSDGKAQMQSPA
T1 sequence (P03952 20-390 partner limits assumed): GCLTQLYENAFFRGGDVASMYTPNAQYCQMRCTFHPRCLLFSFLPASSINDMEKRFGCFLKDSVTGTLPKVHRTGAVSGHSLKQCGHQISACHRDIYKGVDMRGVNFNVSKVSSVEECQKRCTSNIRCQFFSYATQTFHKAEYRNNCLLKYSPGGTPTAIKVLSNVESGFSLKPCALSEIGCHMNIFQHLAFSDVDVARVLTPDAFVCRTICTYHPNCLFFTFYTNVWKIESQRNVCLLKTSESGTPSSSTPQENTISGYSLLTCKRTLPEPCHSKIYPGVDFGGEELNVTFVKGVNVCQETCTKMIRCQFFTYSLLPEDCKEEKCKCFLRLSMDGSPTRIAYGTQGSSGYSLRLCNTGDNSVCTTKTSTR
Description: (§1) Plasma kallikrein protease inhibition assay. Two methods for determining the IC50 of a test compound against Plasma Kallikrein are provided.
In the first method was used a reaction buffer composed of 25 mM Tris-HCl (pH 8.0), 100 mM NaCl (pH 8.5), 0.01% Brij35, and 1% DMSO (final). The enzyme used was Plasma Kallikrein (R&D Systems Cat #2497-SE; Recombinant Human Plasma Kallikrein, expressed in Mouse myeloma cell line, NS0-derived Gly20-Ala638, with a C-terminal 60-His tag. MW=70 kDa).
The enzyme was activated by dilution to 200 μg/mL in activation buffer (100 mM Tris, 10 mM CaCl2, 150 mM NaCl, pH 7.5 (TCN), and then combined with an equal volume of 20 μg/mL thermolysin to form a reaction buffer. Each test compound was then dissolved in DMSO and delivered into the reaction buffer. The reaction was initiated by delivering a substrate solution containing 10 μM Z-FR-AMC (Enzo Cat #P-139; AMC: 7-Amino-4-methylcoumarin) into the reaction well after a 20-minute pre-incubation period.
Measurement was conducted with En Vision (PE) with excitation and emission wavelengths of 355 nm and 460 nm, respectively. […]. The enzyme activities were monitored every 5 minutes as a time-course measurement of the increase in signal from fluorescently labeled peptide substrate for 120 minutes at room temperature.
Data was analyzed by taking slope*(signal/time) of the linear portion of measurements. Slope was calculated using Excel, and curve fits were performed using Prism software.

Plasma Kallikrein [3] = biological target: T1, Plasma Kallikrein; experiment: Plasma kallikrein activity in pooled human plasma; type: biochemical; set-up: Plasma Kallikrein activity was also measured in pooled human plasma; from tissue; host or cells: pooled human plasma; details: Z-FR-AMC substrate, activated with 10% Actin FS solution, 10 minutes, read-out: Pooled Human Plasma PKal IC50
Description: as §1
Second, Plasma Kallikrein activity was also measured in pooled human plasma. First, a 10% Actin FS solution was prepared in assay buffer. Each test compound was dissolved in DMSO and delivered to the reaction mixture along with Z-FR-AMC substrate and pooled human plasma. The multi-well reaction plate was incubated for five minutes at room temperature. To initiate the reaction, the 10% Actin FS solution was added to each well, and kinetic measurements were taken at Ex/Em at 355/460 nm. The fluorescence signal was recorded every 30 seconds for a total of 10 minutes.

SMILES | Papp at 2 h, 10 µM [1] [×10⁻⁶ cm/s] | IC50 (Plasma Kallikrein [2]) [nM] | IC50 (Plasma Kallikrein [3]) [nM]
CC(C)(C#N)c1ccc(Cn2cc(C(=O)NCc3ccc(C(=N)N)c(F)c3)cn2)cc1 [Example 43, N-(4-carbamimidoyl-3-fluorobenzyl)-1-(4-(2-cyanopropan-2-yl)benzyl)-1H-pyrazole-4-carboxamide] | < 2 | 1 to 10 | < 100
N=C(N)c1ccc(CNC(=O)c2cnn(Cc3ccc(CC(N)=O)cc3)c2)cc1 [Example 18, 1-(4-(2-amino-2-oxoethyl)benzyl)-N-(4-carbamimidoylbenzyl)-1H-pyrazole-4-carboxamide] | < 2 | 1 to 10 | –
N#Cc1ccn(Cc2ccc(Cn3cc(C(=O)NCc4ccc(C(=N)N)cc4)cn3)cc2)c1 [Example 26, N-(4-carbamimidoylbenzyl)-1-(4-((3-cyano-1H-pyrrol-1-yl)methyl)benzyl)-1H-pyrazole-4-carboxamide] | < 2 | < 1 | < 100
N#CCc1ccc(Cn2cc(C(=O)NCc3ccc(C(=N)N)cc3)cn2)cc1 [Example 1, N-(4-carbamimidoylbenzyl)-1-(4-(cyanomethyl)benzyl)-1H-pyrazole-4-carboxamide] | < 2 | < 1 | < 100
N#Cc1cccc(Cc2ccc(Cn3cc(C(=O)NCc4ccc(C(=N)N)cc4F)cn3)cc2)c1 [Example 50, N-(4-carbamimidoyl-2-fluorobenzyl)-1-(4-(3-cyanobenzyl)benzyl)-1H-pyrazole-4-carboxamide] | < 2 | < 1 | < 100
N#CCCc1ccc(Cn2cc(C(=O)NCc3ccc(C(=N)N)cc3)cn2)cc1 [Example 3, N-(4-carbamimidoylbenzyl)-1-(4-(2-cyanoethyl)benzyl)-1H-pyrazole-4-carboxamide] | < 2 | < 1 | < 100
N#Cc1cccc(Cc2ccc(Cn3cc(C(=O)NCc4ccc(C(=N)N)c(F)c4)cn3)cc2)c1 [Example 49, N-(4-carbamimidoyl-3-fluorobenzyl)-1-(4-(3-cyanobenzyl)benzyl)-1H-pyrazole-4-carboxamide] | < 2 | < 1 | 100 to 1000
N#CCCc1ccc(Cn2cnc(C(=O)NCc3ccc(C(=N)N)cc3)c2)cc1 [Example 4, N-(4-carbamimidoylbenzyl)-1-(4-(2-cyanoethyl)benzyl)-1H-imidazole-4-carboxamide] | < 2 | < 1 | –
CC(C)(C#N)c1ccc(Cn2cc(C(=O)NCc3ccc(C(=N)N)cc3F)cn2)cc1 [Example 45, N-(4-carbamimidoyl-2-fluorobenzyl)-1-(4-(2-cyanopropan-2-yl)benzyl)-1H-pyrazole-4-carboxamide] | 2 to 10 | < 1 | < 100
CN(C)C(=O)Cc1ccc(Cn2cc(C(=O)NCc3ccc(C(=N)N)cc3)cn2)cc1 [Example 33, N-(4-carbamimidoylbenzyl)-1-(4-(2-(dimethylamino)-2-oxoethyl)benzyl)-1H-pyrazole-4-carboxamide] | < 2 | < 1 | < 100
COCCc1ccc(Cn2cc(C(=O)NCc3ccc(C(=N)N)cc3)cn2)cc1 [Example 15, N-(4-carbamimidoylbenzyl)-1-(4-(2-methoxyethyl)benzyl)-1H-pyrazole-4-carboxamide] | 2 to 10 | < 1 | < 100
CC(C)(C#N)c1ccc(Cn2cnc(C(=O)NCc3ccc(C(=N)N)cc3)c2)cc1 [Example 8, N-(4-carbamimidoylbenzyl)-1-(4-(2-cyanopropan-2-yl)benzyl)-1H-imidazole-4-carboxamide] | < 2 | 1 to 10 | –
N#CCc1ccc(Cn2cnc(C(=O)NCc3ccc(C(=N)N)cc3)c2)cc1 [Example 9, N-(4-carbamimidoylbenzyl)-1-(4-(cyanomethyl)benzyl)-1H-imidazole-4-carboxamide] | 2 to 10 | 1 to 10 | –
